Counter-ions that a name gives are not always drawn.
Experiments:
LC3 proteins = experiment: ITC and NMR titrations; assay type: binding; conditions: by ITC and NMR
Protocol: All ITC experiments were performed at 25 °C using a VP-ITC microcalorimeter (MicroCal Inc, MA, USA) and analyzed with the ITC-Origin 7.0 software (MicroCal Inc.) based on a "one-site binding" reaction. […] Dilution heat of both compounds was measured upon titration of the stocks into buffer. All experiments were performed on a Bruker Avance spectrometer operating at a proton frequency of 500, 600 and 700 MHz at 298 K.

LC3B [1] = target: T1, LC3B (Homo sapiens, UniProt Q9GZQ8); experiment: AlphaScreen interaction displacement assay (GST-LC3B / biotin-LIRtide); assay type: binding; conditions: Table 1-a; n.e. means no effect
T1 construct: made in house; host or cells: E. coli Rosetta (DE3)
Protocol: The AlphaScreen assay contained 50 mM Tris (pH 7.5), 100 mM NaCl, 0.01% Tween 20, 2 mM DTT, 1 % DMSO and 2-30 nM GST-LC3B and biotin-LIRtide 2-30 nM. The concentrations of GST-LC3B and biotin-LIRtide were experimentally chosen from a cross-titration assay exploring the different combinations of for each batch of protein used and when a new batch of buffer was prepared.
A gene encoding for human LC3B protein inserted in a pET-GST expression vector was used as a template. Rosetta (DE3) competent cells were transformed by started procedure, plated on an LB agar plate with ampicillin (100 µg/ml) and left overnight at 37 °C. Overnight culture was prepared from a single colony and shaken at 180 rpm at 37 °C. LB medium with ampicillin was inoculated with overnight culture (10 ml per 500 ml of LB) and shaken until the optical density at 600 nm (OD600) reached a value of approximately 0.6. Protein expression was then induced with 400 µM IPTG and further incubated for 4 hours. Bacterial culture was centrifuged for 20 minutes at 6000 rpm at 4 °C. The pellet was then resuspended in lysis buffer (20 mM TRIS-HCl pH 7.5, 10 mM EDTA, 5 mM EGTA, 150 mM NaCl, 0.5 % NP40, 1 % Triton X-100, 1 mM DTT, 2 mg/ml lysozyme, 0.05 U/µl benzonase, 1x protease inhibitor cocktail). Lysate was then stored at -20 °C over night. Sample was thawed in water bath and sonicated on ice (40 % amplitude, 30 seconds pulse/30 seconds pause cycle). Lysate was centrifuged at 10000xg at 4 °C for half an hour. Meanwhile, 500 µl of glutathione sepharose beads was equilibrated with lysis buffer and then added to the supernatant. The mixture was incubated and rotated at room temperature for 2 hours. After binding of the protein to the beads, beads were spun down at 500xg at 4 °C for 5 minutes. Pellet was then washed with cold wash buffer at least four times (20 mM Tris-HCl pH 7.5, 10 mM EDTA, 5 mM EGTA, 150 mM NaCl, 1 mM DTT), dried and stored in 5 % glycerol at 4 °C.

LC3B [2] = experiment: cellular autophagy screening: LC3B spots by immunocytochemistry and automated confocal imaging; assay type: cell-based; conditions: relative to negative DMSO control, 100 µM, 1 hour; for LC3B inhibition cell based Fold increase of LC3B spots [DMSO control 1.0]: Table 1-a, n.e. means no effect
Protocol: For screening purposes, cells were seeded in 384 well plates and left over night for attachment.
Afterwards, medium was removed and 4 % (w/v) paraformaldehyde (PFA) in PBS buffer was added to the cells for 20 minutes, incubated at room temperature. Cells were permeabilized with 0.1 % (v/v) Triton X-100 for 10 min at room temperature and washed with PBS. Cells were blocked with 3 % (w/v) bovine serum albumin (BSA) in PBS for 45 minutes at 37 °C and then incubated with anti-LC3B (PM036, MBL) or anti-p62 (PM045 or M162-3, MBL) primary antibody diluted in 0.3 % BSA (1:2000 or 1:500) for 1.5-2 hours at 37 °C. Cells were washed three times with PBS.
384 well plates were then analyzed with an automated confocal microscope Opera (PerkinElmer) enabling high throughput high content screening image analysis. […] A water immersion 60x objective was used for optical slicing and stacking (5x0.5 µm stacks). […] Signal was detected with a fast gated CCD camera. Acapella software (PerkinElmer) is an algorithm based high content imaging and analysis software used in multi-parametric multiplex assays. Acapella was used to follow cell viability (i.e. number of cells) and the number of LC3B and p62 spots per cell.
The LC3B protein is a ubiquitin-like protein that can be conjugated to phosphatidylethanolamine (PE) in the membrane of the incipient autophagosome. The nonlipidated and lipidated forms are usually referred to as LC3B-I and LC3B-II, respectively. […] Autophagic flux is often inferred on the basis of LC3B-II turnover, measured by western blot (WB) or immunofluorescence (IF) in the presence and absence of lysosomal degradation. […] Lysosomal degradation can be prevented e.g. through the use of compounds that neutralize the lysosomal pH such as Bafilomycin A1 (BafA1) or chloroquine (CQ). […] An additive or supra-additive effect in LC3B-II levels (WB) and LC3B-positive punctae numbers (IF) may indicate that the treatment enhances autophagic flux. […] This assay can be complemented by simultaneous monitoring of autophagosomal substrates or autophagosomal substrate receptors (e.g. SQSTM1/p62) by WB and/or IF. For example, an increase in LC3B-II levels in combination with the accumulation of SQSTM1/p62 is indicative of a blockage of the autophagy pathway at terminal stages.

U2OS cells = experiment: autophagic flux by confocal microscopy and western blotting; assay type: cell-based, Human; conditions: 100 nM, alone
Protocol: […]. After harvesting, cells were lysed with radioimmunoprecipitation assay (RIPA) buffer (50 mM Tris-HCl, pH 7.5, 150 mM NaCl, 0.5 % deoxycholate, 1 % Triton X-100, 0.1 % SDS and 1x protease inhibitors) and left on ice for 30 minutes. Cell lysates were clarified by centrifugation at 10000xg for 20 min at 4 °C. Protein concentrations of the supernatants were determined by BCA assay and the absorbance was measured at 562 nm. SDS-PAGE and WB was performed.
For screening purposes, cells were seeded in 384 well plates and left over night for attachment. […]. For controls, cells were treated with 250 nM torin and/or 100 nM BafA1 for 2 hours.
Afterwards, medium was removed and 4 % (w/v) paraformaldehyde (PFA) in PBS buffer was added to the cells for 20 minutes, incubated at room temperature. Cells were permeabilized with 0.1 % (v/v) Triton X-100 for 10 min at room temperature and washed with PBS. Cells were blocked with 3 % (w/v) bovine serum albumin (BSA) in PBS for 45 minutes at 37 °C and then incubated with anti-LC3B (PM036, MBL) or anti-p62 (PM045 or M162-3, MBL) primary antibody diluted in 0.3 % BSA (1:2000 or 1:500) for 1.5-2 hours at 37 °C. Cells were washed three times with PBS. Secondary Alexa Fluor 488 - labeled antibodies (A-11008, Invitrogen) were diluted in 0.3 % BSA (1:2500) and incubated on cells for 15 minutes at 37 °C. Cells were washed once with PBS, incubated with DRAQ5 (#4084, Cell Signaling) diluted in PBS (1:5000) for 10 minutes and washed three times with PBS.
384 well plates were then analyzed with an automated confocal microscope Opera (PerkinElmer) enabling high throughput high content screening image analysis. […] Signal was detected with a fast gated CCD camera. […]
The LC3B protein is a ubiquitin-like protein that can be conjugated to phosphatidylethanolamine (PE) in the membrane of the incipient autophagosome. […] Autophagic flux is often inferred on the basis of LC3B-II turnover, measured by western blot (WB) or immunofluorescence (IF) in the presence and absence of lysosomal degradation. […]

Compound | Kd (LC3 proteins) | LC3B inhibition cell free IC50 (LC3B [1]) | LC3B inhibition cell based Fold increase of LC3B spots [DMSO control 1.0] (LC3B [2]) | LC3B Inhibition cell based Fold increase of LC3B spots (LC3B [2]; Table 2a) | amount of LC3B-positive spots and lipidated LC3B (LC3B-II) (U2OS cells)
CO[C@@H]1[C@@H](OC(N)=O)[C@@H](O)[C@H](Oc2ccc3c(O)c(NC(=O)c4ccc(O)c(CC=C(C)C)c4)c(=O)oc3c2C)OC1(C)C [Compound 2-0, Novobiocin Sodium Salt] | 5 to 50 µM |  |  |  | 
Fc1ccc(CN2CN=C(SCc3ccc(Br)cc3)NC2)cc1F [Compound I-17, 6-((4-bromobenzyl)thio)-3-(3,4-difluorobenzyl)-1,2,3,4-tetrahydro-1,3,5-triazine] |  | n.e | 4.2 |  | 
CO/C1=C\C(C)=C\[C@@H](C)[C@@H](O)[C@@H](C)C/C(C)=C/C=C/[C@H](OC)[C@@H]([C@@H](C)[C@@H](O)[C@H](C)[C@@]2(O)C[C@@H](O)[C@H](C)[C@@H](C(C)C)O2)OC1=O [bafilomycin A1, reference compound] |  |  | 5.5 | 5.5 | increased

More lines, main results first:

Kd (LC3 proteins) | LC3B inhibition cell free IC50 (LC3B [1]) | Compound | LC3B inhibition cell based Fold increase of LC3B spots [DMSO control 1.0] (LC3B [2]) | LC3B Inhibition cell based Fold increase of LC3B spots (LC3B [2]; Table 2a) | amount of LC3B-positive spots and lipidated LC3B (LC3B-II) (U2OS cells)
 | n.e | Fc1ccc(CN2CN=C(SCc3ccc(Cl)cc3)NC2)cc1 [Compound I-15, 6-((4-chlorobenzyl)thio)-3-(4-fluorobenzyl)-1,2,3,4-tetrahydro-1,3,5-triazine] | 5.9 |  | 
 | n.e | Fc1ccc(CN2CN=C(SCc3cccc(Oc4ccccc4)c3)NC2)cc1 [Compound I-16, 3-(4-fluorobenzyl)-6-((3-phenoxybenzyl)thio)-1,2,3,4-tetrahydro-1,3,5-triazine] | n.e. |  | 

Reference: EP3184514A1, “AUTOPHAGY INHIBITORS” (Deutsches Krebsforschungszentrum, priority 2015, dated 2017)
